Measured values published in US8921267B2, “Safening 6-(trisubstituted phenyl)-4-amino-2-pyridinecarboxylate herbicide injury on cereal crops” (Dow AgroSciences LLC, priority 2008, dated 2014).
Counter-ions that a name gives are not always drawn.

Key:
Format in all cases: in vivo
[1] = tested on: Russian thistle (Salsola iberica L; SASKR); assay: Postemergence herbicidal activity, greenhouse, visual injury: Russian thistle; parameters: key: visual injury, 0–100%: 0 = no injury, 100 = complete kill
Summary of the method: (§1)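 Percent visual injury relative to solvent-blank controls, rated 20-22 d after treatment on a 0 (none) to 100 (complete kill) scale. Expected mixture response came from Colby's equation, Expected=A+B−(A×B/100). Sprays contained 1.5% v/v crop oil concentrate at 187 L/ha.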

[2] = tested on: purple deadnettle (Lamium purpureum L; LAMPU); assay: Postemergence herbicidal activity, greenhouse, visual injury: purple deadnettle; parameters: key: visual injury, 0–100%: 0 = no injury, 100 = complete kill
Summary of the method: as §1

[3] = tested on: corn poppy (Papaver rhoeas L; PAPRH); assay: Postemergence herbicidal activity, greenhouse, visual injury: corn poppy
Summary of the method: as §1

[4] = tested on: scented mayweed (Matricaria chamomila L; MATCH); assay: Postemergence herbicidal activity, greenhouse, visual injury: scented mayweed; parameters: key: % visual injury: 0 = no injury, 100 = complete kill
Procedure: (§2) Evaluation of Postemergence Herbicidal Safening in Cereal Crops
(§3) Seeds of the desired test plant species were planted in Sun Gro MetroMix® 306 planting mixture, which typically has a pH of 6.0 to 6.8 and an organic matter content of about 30 percent, in plastic pots with a surface area of 103.2 square centimeters (cm^2). When required to ensure good germination and healthy plants, a fungicide treatment and/or other chemical or physical treatment was applied. The plants were grown for 7-36 days (d) in a greenhouse with an approximate 14-hour (h) photoperiod which was maintained at about 18° C. during the day and 17° C. during the night. Nutrients and water were added on a regular basis and supplemental lighting was provided with overhead metal halide 1000-Watt lamps as necessary. The plants were employed for testing when they reached the second or third true leaf stage.
(§4) Weighed amounts of esters (methyl) or salts (TEA [triethylammonium], K [potassium]) of 4-amino-3-chloro-6-(4-chloro-2-fluoro-3-methoxyphenyl)pyridine-2-carboxylic acid (Compound 1) were dissolved in a volume of 97:3 volume/volume (v/v) acetone/dimethylsulfoxide (DMSO) to obtain stock solutions. […] The concentrated stock solutions were diluted with an aqueous mixture of 1.5% v/v of Agri-dex crop oil concentrate to provide the appropriate application rates. Compound requirements are based upon a 12 mL application volume at a rate of 187 liters per hectare (L/ha). Stocks solutions of the safeners were prepared following the same procedure. Spray solutions of the safeners and experimental compound mixtures were prepared by adding the stock solutions to the appropriate amount of dilution solution to form a 12 mL spray solution with active ingredients in two-way combinations. Formulated compounds were applied to the plant material with an overhead Mandel track sprayer equipped with 8002E nozzles calibrated to deliver 187 L/ha over an application area of 0.503 square meters (m^2) at a spray height of 18 inches (43 centimeters (cm)) above average plant canopy. Control plants were sprayed in the same manner with the solvent blank.
(§5) The treated plants and control plants were placed in a greenhouse as described above and watered by sub-irrigation to prevent wash-off of the test compounds. After 20-22 d, the condition of the test plants as compared with that of the control plants was determined visually and scored on a scale of 0 to 100 percent where 0 corresponds to no injury and 100 corresponds to complete kill.
(§6) Colby's equation was used to determine the herbicidal effects expected from the mixtures (Colby, S. R. Calculation of the synergistic and antagonistic response of herbicide combinations. Weeds 1967, 15, 20-22.).
(§7) The following equation was used to calculate the expected activity of mixtures containing two active ingredients, A and B: Expected=A+B−(A×B/100)
(§8) A=observed efficacy of active ingredient A at the same concentration as used in the mixture.
(§9) B=observed efficacy of active ingredient B at the same concentration as used in the mixture.

[5] = tested on: wheat (Triticum aestivum L; TRZAS); assay: Postemergence herbicidal safening, greenhouse, visual injury: wheat
Summary of the method: (§10)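 Injury was rated visually on a 0 (none) to 100% (complete kill) scale 20-22 d after treatment, relative to solvent-blank plants. Treatments were two-way safener/herbicide combinations in 1.5% v/v crop oil concentrate, applied overhead at 187 L/ha to plants at the 2nd–3rd true leaf stage. Colby's equation gave expected mixture effects.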

[6] = tested on: barley (Hordeum vulgare L; HORVS); assay: Postemergence herbicidal safening, greenhouse, visual injury: barley
Summary of the method: as §10

[7] = tested on: cleavers (Galium aparine L; GALAP); assay: Postemergence herbicidal activity, greenhouse, visual injury: cleavers; parameters: key: visual injury, 0–100%: 0 = no injury, 100 = complete kill
Summary of the method: as §1

[8] = tested on: wild buckwheat (Polygonum convolvulus L; POLCO); assay: Postemergence herbicidal activity, greenhouse, visual injury: wild buckwheat
Summary of the method: as §1

[9] = tested on: kochia (Kochia scoparia L; KCHSC); assay: Postemergence herbicidal activity, greenhouse, visual injury: kochia; parameters: key: % visual injury: 0 = no injury, 100 = complete kill
Procedure: as §2, §3, §4, §5, §6, §7, §8, §9

[10] = tested on: wild pansy (Viola tricolor L; VIOTR); assay: Postemergence herbicidal activity, greenhouse, visual injury: wild pansy; parameters: key: visual injury, 0–100%: 0 = no injury, 100 = complete kill
Summary of the method: as §1

[11] = tested on: bird's-eye speedwell (Veronica persica L; VERPE); assay: Postemergence herbicidal activity, greenhouse, visual injury: bird's-eye speedwell; parameters: key: visual injury, 0–100%: 0 = no injury, 100 = complete kill
Summary of the method: as §1

[12] = tested on: chickweed (Stellaria media L; STEME); assay: Postemergence herbicidal activity, greenhouse, visual injury: chickweed; parameters: key: visual injury, 0–100%: 0 = no injury, 100 = complete kill
Summary of the method: as §1

COc1c(Cl)ccc(-c2cc(N)c(Cl)c(C(=O)O)n2)c1F [Compound 1 TEA salt, 4-amino-3-chloro-6-(4-chloro-2-fluoro-3-methoxyphenyl)pyridine-2-carboxylic acid]
SASKR Ob ([1]; applied alone at 140 g/ha): 88% | SASKR Ob ([1]; applied alone, 140 g/ha): 88 | LAMPU Ob ([2]; applied alone at 140 g/ha): 99% | LAMPU Ob ([2]; applied alone, 140 g/ha): 99 | PAPRH Ob ([3]; applied alone at 140 g/ha): 100% | PAPRH Ob ([3]; applied alone, 140 g/ha): 100 | MATCH Ob ([4]; applied alone at 140 g/ha): 80% | MATCH Ob ([4]; applied alone, 140 g/ha): 80 | TRZAS Ob ([5]; applied alone at 140 g/ha): 26% | TRZAS Ob ([5]; applied alone, 140 g/ha): 26% | HORVS Ob ([6]; applied alone at 140 g/ha): 16% | HORVS Ob ([6]; applied alone, 140 g/ha): 16% | GALAP Ob ([7]; applied alone at 140 g/ha): 100% | GALAP Ob ([7]; applied alone, 140 g/ha): 100 | POLCO Ob ([8]; applied alone at 140 g/ha): 100% | POLCO Ob ([8]; applied alone, 140 g/ha): 100 | KCHSC Ob ([9]; applied alone at 140 g/ha): 94% | KCHSC Ob ([9]; applied alone, 140 g/ha): 94 | VIOTR Ob ([10]; applied alone at 140 g/ha): 69% | VIOTR Ob ([10]; applied alone, 140 g/ha): 69 | VERPE Ob ([11]; applied alone at 140 g/ha): 85% | VERPE Ob ([11]; applied alone, 140 g/ha): 85 | STEME Ob ([12]; applied alone at 140 g/ha): 94% | STEME Ob ([12]; applied alone, 140 g/ha): 94

CC1(C)OC(c2ccco2)CN1C(=O)C(Cl)Cl (stereo not drawn) [Furilazole (MON 13900)]
SASKR Ob ([1]; applied alone, 17.5 g/ha): 0 | SASKR Ob ([1]; applied alone, 35 g/ha): 0 | SASKR Ob ([1]; applied alone, 70 g/ha): 0 | SASKR Ob ([1]; applied alone, 140 g/ha): 0 | LAMPU Ob ([2]; applied alone, 17.5 g/ha): 0 | LAMPU Ob ([2]; applied alone, 35 g/ha): 0 | LAMPU Ob ([2]; applied alone, 70 g/ha): 0 | LAMPU Ob ([2]; applied alone, 140 g/ha): 0 | PAPRH Ob ([3]; applied alone, 17.5 g/ha): 0 | PAPRH Ob ([3]; applied alone, 35 g/ha): 0 | PAPRH Ob ([3]; applied alone, 70 g/ha): 0 | PAPRH Ob ([3]; applied alone, 140 g/ha): 0 | MATCH Ob ([4]; applied alone, 17.5 g/ha): 0 | MATCH Ob ([4]; applied alone, 35 g/ha): 0 | MATCH Ob ([4]; applied alone, 70 g/ha): 0 | MATCH Ob ([4]; applied alone, 140 g/ha): 0 | TRZAS Ob ([5]; applied alone, 17.5 g/ha): 0% | TRZAS Ob ([5]; applied alone, 35 g/ha): 0% | TRZAS Ob ([5]; applied alone, 70 g/ha): 0% | TRZAS Ob ([5]; applied alone, 140 g/ha): 0% | HORVS Ob ([6]; applied alone, 17.5 g/ha): 0% | HORVS Ob ([6]; applied alone, 35 g/ha): 0% | HORVS Ob ([6]; applied alone, 70 g/ha): 0% | HORVS Ob ([6]; applied alone, 140 g/ha): 0% | GALAP Ob ([7]; applied alone, 17.5 g/ha): 0 | GALAP Ob ([7]; applied alone, 35 g/ha): 0 | GALAP Ob ([7]; applied alone, 70 g/ha): 0 | GALAP Ob ([7]; applied alone, 140 g/ha): 0 | POLCO Ob ([8]; applied alone, 17.5 g/ha): 0 | POLCO Ob ([8]; applied alone, 35 g/ha): 0 | POLCO Ob ([8]; applied alone, 70 g/ha): 0 | POLCO Ob ([8]; applied alone, 140 g/ha): 0 | KCHSC Ob ([9]; applied alone, 17.5 g/ha): 0 | KCHSC Ob ([9]; applied alone, 35 g/ha): 0 | KCHSC Ob ([9]; applied alone, 70 g/ha): 0 | KCHSC Ob ([9]; applied alone, 140 g/ha): 0 | VIOTR Ob ([10]; applied alone, 17.5 g/ha): 0 | VIOTR Ob ([10]; applied alone, 35 g/ha): 0 | VIOTR Ob ([10]; applied alone, 70 g/ha): 0 | VIOTR Ob ([10]; applied alone, 140 g/ha): 0 | VERPE Ob ([11]; applied alone, 17.5 g/ha): 0 | VERPE Ob ([11]; applied alone, 35 g/ha): 0 | VERPE Ob ([11]; applied alone, 70 g/ha): 0 | VERPE Ob ([11]; applied alone, 140 g/ha): 0 | STEME Ob ([12]; applied alone, 17.5 g/ha): 0 | STEME Ob ([12]; applied alone, 35 g/ha): 0 | STEME Ob ([12]; applied alone, 70 g/ha): 0 | STEME Ob ([12]; applied alone, 140 g/ha): 0

N#C/C(=N\OCC1OCCO1)c1ccccc1 [Oxabetrinil]
SASKR Ob ([1]; applied alone, 17.5 g/ha): 0 | SASKR Ob ([1]; applied alone, 35 g/ha): 0 | SASKR Ob ([1]; applied alone, 70 g/ha): 0 | SASKR Ob ([1]; applied alone, 140 g/ha): 0 | LAMPU Ob ([2]; applied alone, 17.5 g/ha): 0 | LAMPU Ob ([2]; applied alone, 35 g/ha): 0 | LAMPU Ob ([2]; applied alone, 70 g/ha): 0 | LAMPU Ob ([2]; applied alone, 140 g/ha): 0 | PAPRH Ob ([3]; applied alone, 17.5 g/ha): 0 | PAPRH Ob ([3]; applied alone, 35 g/ha): 0 | PAPRH Ob ([3]; applied alone, 70 g/ha): 0 | PAPRH Ob ([3]; applied alone, 140 g/ha): 0 | MATCH Ob ([4]; applied alone, 17.5 g/ha): 0 | MATCH Ob ([4]; applied alone, 35 g/ha): 0 | MATCH Ob ([4]; applied alone, 70 g/ha): 0 | MATCH Ob ([4]; applied alone, 140 g/ha): 0 | TRZAS Ob ([5]; applied alone, 17.5 g/ha): 0% | TRZAS Ob ([5]; applied alone, 35 g/ha): 0% | TRZAS Ob ([5]; applied alone, 70 g/ha): 0% | TRZAS Ob ([5]; applied alone, 140 g/ha): 0% | HORVS Ob ([6]; applied alone, 17.5 g/ha): 0% | HORVS Ob ([6]; applied alone, 35 g/ha): 0% | HORVS Ob ([6]; applied alone, 70 g/ha): 0% | HORVS Ob ([6]; applied alone, 140 g/ha): 0% | GALAP Ob ([7]; applied alone, 17.5 g/ha): 0 | GALAP Ob ([7]; applied alone, 35 g/ha): 0 | GALAP Ob ([7]; applied alone, 70 g/ha): 0 | GALAP Ob ([7]; applied alone, 140 g/ha): 0 | POLCO Ob ([8]; applied alone, 17.5 g/ha): 0 | POLCO Ob ([8]; applied alone, 35 g/ha): 0 | POLCO Ob ([8]; applied alone, 70 g/ha): 0 | POLCO Ob ([8]; applied alone, 140 g/ha): 0 | KCHSC Ob ([9]; applied alone, 17.5 g/ha): 0 | KCHSC Ob ([9]; applied alone, 35 g/ha): 0 | KCHSC Ob ([9]; applied alone, 70 g/ha): 0 | KCHSC Ob ([9]; applied alone, 140 g/ha): 0 | VIOTR Ob ([10]; applied alone, 17.5 g/ha): 0 | VIOTR Ob ([10]; applied alone, 35 g/ha): 0 | VIOTR Ob ([10]; applied alone, 70 g/ha): 0 | VIOTR Ob ([10]; applied alone, 140 g/ha): 0 | VERPE Ob ([11]; applied alone, 17.5 g/ha): 0 | VERPE Ob ([11]; applied alone, 35 g/ha): 0 | VERPE Ob ([11]; applied alone, 70 g/ha): 0 | VERPE Ob ([11]; applied alone, 140 g/ha): 0 | STEME Ob ([12]; applied alone, 17.5 g/ha): 0 | STEME Ob ([12]; applied alone, 35 g/ha): 0 | STEME Ob ([12]; applied alone, 70 g/ha): 0 | STEME Ob ([12]; applied alone, 140 g/ha): 0
